Laboratory results published in patent publication US20230339968A1, “KRAS Gl2C INHIBITORS” (Eli Lilly and Company, priority 2019, published 2023).

Columns and labels:
[1] = system: MiaPaca-2 (pancreas) xenograft; test: Anti-tumor growth activity, MiaPaca-2 xenograft model; assay type: in vivo, mouse
Description: For xenograft models of H1373, HCC44, MiaPaca-2, SW1463, KYSE-410 and UM-UC-3, typically 5-10×10^6 cells in a 1:1 matrigel mix (0.2 mL total volume) are implanted by subcutaneous injection in hind leg of nude mice. Generally, a total of 4 mice each group are used for efficacy study. Treatment is initiated with oral administration (gavage) of testing compound or vehicle (20% captisol, 25 mM phosphate, pH2.0) in 0.2 mL volume when tumor size reaches approximately 200-300 mg. Tumor growth and body weight are monitored over time to evaluate efficacy and signs of toxicity. For EL3187 PDX model, frozen vials containing tumor fragments are thawed at 37° C. in a water bath. The tumor fragments are transferred to 50 mL Falcon tube and the ice cold DMEM medium is slowly added into the tube to a total volume of 35 mL. Then the tumor fragments are centrifuged at 130×g for 2 minutes at 4° C. and supernatant is aspirated. This washing step is repeated twice and the tumor fragments are resuspended in 10 mL DMEM for implantation into athymic nude-Foxn1nu mice (Envigo RMS, Inc., Mount Comfort, Indiana). Once tumor volumes reach 800 to 1000 mm^3, animals are sacrificed and tumors are harvested using aseptic technique. Fresh tumors are cut into 10 to 15 mm^3 fragments and placed into cold Gibco hibernate medium. The tumor fragments are subcutaneously implanted into animals with a 10 g trochar needle. When tumor size reaches 200 to 300 mm^3, the animals are randomized for compound treatment.
Among models listed in Table 31, EL3187 is a patient-derived xenograft (PDX) model, and all other are tumor xenograft models.

H358 (lung) xenograft = test: In vivo combination efficacy with other targeted therapies, H358 xenograft model; set-up: species or system mouse; settings: 10 mg/kg QD × 28
Description: A total of six in vivo xenograft or PDX models—four lung models (H358, H1373, LU99, and EL3187 PDX), one colorectal model (SW1463) and one pancreatic model (MiaPaca-2)—are utilized.

Compound: C=CC(=O)N1CCN2C(=O)c3cc(F)c(-c4ccc(F)c5sc(N)c(C#N)c45)c(Cl)c3OCC[C@H]2C1 [Example 35, 4-[(13aS)-10-Chloro-8-fluoro-6-oxo-2-prop-2-enoyl-1,3,4,12,13,13a-hexahydropyrazino[2,1-d][1,5]benzoxazocin-9-yl]-2-amino-7-fluoro-benzothiophene-3-carbonitrile]
- tumor growth inhibition (%) or regression (−%) ([1]; 5 mg/kg BID × 28, oral): −36.1%
- tumor growth inhibition (%) or regression (−%) ([1]; 5 mg/kg QD × 28, oral): 81.7%
- tumor growth inhibition (%) or regression (−%) ([1]; 10 mg/kg BID × 28, oral): −45.2%
- tumor growth inhibition (%) or regression (−%) ([1]; 10 mg/kg QD × 28, oral): −27%
- tumor growth inhibition (%) or regression (−%) ([1]; 30 mg/kg BID × 28, oral): −43.6%
- tumor growth inhibition (%) or regression (−%) ([1]; 30 mg/kg QD × 28, oral): −42%
- Tumor Growth Inhibition (%) and Regression (−%) (H358 (lung) xenograft; first data column): 74.9%
- Tumor Growth Inhibition (%) and Regression (−%) (H358 (lung) xenograft; second data column): 46.6%
